Assay results published in ChEMBL document CHEMBL1131475, “Discovery of ritonavir, a potent inhibitor of HIV protease with high oral bioavailability and clinical efficacy” (J Med Chem, 1998).

Key:
[1] = Oral bioavailability in rat; format: ADME, organism-based; conditions: in vivo
in vivo [2] = conditions: rat, plasma, po
in vivo [3] = conditions: rat, plasma, po, 10 mg/kg
in vivo [4] = conditions: rat, plasma, po; remark: listed apart in the source
in vivo [5] = conditions: rat, plasma, iv
Rattus norvegicus = species on record: Rattus norvegicus; assay: Plasma T1/2 in rat; format: ADME, organism-based; conditions: in vivo

SMILES | bioavailability [1] [%] | AUC (in vivo [2]) [ng·h/mL] | Cmax (in vivo [3]) [nM] | Tmax (in vivo [4]) [min] | half-life (in vivo [5]) [min] | T1/2 (Rattus norvegicus)
CC(C)C(NC(=O)OCc1ccccn1)C(=O)N[C@@H](Cc1ccccc1)[C@@H](O)C[C@H](Cc1ccccc1)NC(=O)OCc1ccoc1 (some centres undefined) |  | 230 | 250 | 16.8 |  | Not soluble
CC(C)C(NC(=O)OCc1csc(N2CCOCC2)n1)C(=O)N[C@@H](Cc1ccccc1)C[C@H](O)[C@H](Cc1ccccc1)NC(=O)OCc1cncs1 (some centres undefined) |  | 40 | 170 | 6 |  | Not soluble
CC(C)C(NC(=O)OCc1csc(N2CCOCC2)n1)C(=O)N[C@@H](Cc1ccccc1)[C@@H](O)C[C@H](Cc1ccccc1)NC(=O)OCc1cncs1 (some centres undefined) |  |  |  |  |  | Not soluble
CC(C)c1nc(CN(C(=O)NCCC(=O)N[C@@H](Cc2ccccc2)[C@@H](O)C[C@H](Cc2ccccc2)NC(=O)OCc2cncs2)C2CC2)cs1 | 9.4 | 400 | 650 | 16.8 | 20.4 | 
CC(C)C(NC(=O)OCc1ccccn1)C(=O)N[C@@H](Cc1ccccc1)[C@@H](O)C[C@H](Cc1ccccc1)NC(=O)OCc1cncs1 (some centres undefined) |  | 1490 | 2980 | 8.4 |  | Not soluble
CC(C)c1nc(CN(C)C(=O)NC(C(=O)N[C@@H](Cc2ccccc2)C[C@H](O)[C@H](Cc2ccccc2)NC(=O)OCc2cncs2)C(C)C)cs1 (some centres undefined) | 78 | 7750 | 2620 | 120 | 72 | 
CC(C)C(NC(=O)N(C)Cc1csc(C2CC2)n1)C(=O)N[C@@H](Cc1ccccc1)C[C@H](O)[C@H](Cc1ccccc1)NC(=O)OCc1cncs1 (some centres undefined) | 58 | 21900 | 6460 | 130 | 66 | 
CCN(Cc1csc(C(C)C)n1)C(=O)NC(C(=O)N[C@@H](Cc1ccccc1)C[C@H](O)[C@H](Cc1ccccc1)NC(=O)OCc1cncs1)C(C)C (some centres undefined) |  | 9850 | 3330 | 228 |  | Not soluble
Cc1cccc(COC(=O)NC(C(=O)N[C@@H](Cc2ccccc2)C[C@H](O)[C@H](Cc2ccccc2)NC(=O)OCc2ccoc2)C(C)C)n1 (some centres undefined) |  | 20 | 160 | 8.4 |  | Not soluble
CCN(Cc1csc(C(C)C)n1)C(=O)NC(C)C(=O)N[C@@H](Cc1ccccc1)C[C@H](O)[C@H](Cc1ccccc1)NC(=O)OCc1cncs1 (some centres undefined) | 0 |  |  |  |  | Not soluble
CC(C)c1nc(CCOC(=O)NC(C(=O)N[C@@H](Cc2ccccc2)[C@@H](O)C[C@H](Cc2ccccc2)NC(=O)OCc2cncs2)C(C)C)cs1 (some centres undefined) | 0 |  |  |  |  | Not soluble
COc1ccc(COC(=O)NC(C(=O)N[C@@H](Cc2ccccc2)[C@@H](O)C[C@H](Cc2ccccc2)NC(=O)OCc2cccnc2)C(C)C)nc1 (some centres undefined) | 7.7 | 380 | 1200 | 12 | 27.6 | 
CC(C)c1nc(COC(=O)NC(C(=O)N[C@@H](Cc2ccccc2)[C@@H](O)C[C@H](Cc2ccccc2)NC(=O)OCc2cncs2)C(C)C)cs1 (some centres undefined) | 0 |  |  |  |  | Not soluble
CC(C)c1nc(COC(=O)NC(C(=O)N[C@@H](Cc2ccccc2)C[C@H](O)[C@H](Cc2ccccc2)NC(=O)OCc2cncs2)C(C)C)cs1 (some centres undefined) |  | 10 | 40 | 6 |  | Not soluble
CC(NC(=O)N(Cc1csc(C(C)C)n1)C1CC1)C(=O)N[C@@H](Cc1ccccc1)C[C@H](O)[C@H](Cc1ccccc1)NC(=O)OCc1cncs1 (some centres undefined) | 76 | 12000 | 5190 | 108 | 36.6 | 

Second part, the compound after the results:

bioavailability [1] [%] | AUC (in vivo [2]) [ng·h/mL] | Cmax (in vivo [3]) [nM] | Tmax (in vivo [4]) [min] | half-life (in vivo [5]) [min] | T1/2 (Rattus norvegicus) | SMILES
18 | 1100 | 2130 | 15 | 13.2 |  | CC(C)c1nc(CN(C)C(=O)NC(C(=O)N[C@@H](Cc2ccccc2)C[C@H](O)[C@H](Cc2ccccc2)NC(=O)OCc2cccnc2)C(C)C)co1 (some centres undefined)
3.3 | 90 | 290 | 6 | 17.4 |  | CC(C)c1nc(CN(C)C(=O)NC(C(=O)N[C@@H](Cc2ccccc2)[C@@H](O)C[C@H](Cc2ccccc2)NC(=O)OCc2cccnc2)C(C)C)co1 (some centres undefined)
 | 1530 | 960 |  |  | Not soluble | Cc1ncsc1CCOC(=O)NC(C(=O)N[C@@H](Cc1ccccc1)C[C@H](O)[C@H](Cc1ccccc1)NC(=O)OCc1cccnc1)C(C)C (some centres undefined)
10 | 640 | 1330 | 6 | 69 |  | Cc1cncc(COC(=O)NC(C(=O)N[C@@H](Cc2ccccc2)C[C@H](O)[C@H](Cc2ccccc2)NC(=O)OCc2cccnc2)C(C)C)n1 (some centres undefined)
0.7 | 30 | 190 | 6 | 19.8 |  | COc1ccc(COC(=O)NC(C(=O)N[C@@H](Cc2ccccc2)C[C@H](O)[C@H](Cc2ccccc2)NC(=O)OCc2cccnc2)C(C)C)cn1 (some centres undefined)
35 | 2050 | 3330 | 10.8 | 32.4 |  | CC(C)C(NC(=O)OCc1nccs1)C(=O)N[C@@H](Cc1ccccc1)[C@@H](O)C[C@H](Cc1ccccc1)NC(=O)OCc1cccnc1 (some centres undefined)
3 | 220 | 470 | 15 | 40.8 |  | CC(C)c1nc(COC(=O)NC(C(=O)N[C@@H](Cc2ccccc2)[C@@H](O)C[C@H](Cc2ccccc2)NC(=O)OCc2cccnc2)C(C)C)cs1 (some centres undefined)
6.7 | 290 | 1220 | 6 | 26.4 |  | Cc1ccc(CN(C)C(=O)NC(C(=O)N[C@@H](Cc2ccccc2)[C@@H](O)C[C@H](Cc2ccccc2)NC(=O)OCc2cccnc2)C(C)C)cn1 (some centres undefined)
1.6 | 50 | 210 | 6 | 14.4 |  | CC(C)c1nc(COC(=O)NC(C(=O)N[C@@H](Cc2ccccc2)C[C@H](O)[C@H](Cc2ccccc2)NC(=O)OCc2cccnc2)C(C)C)cs1 (some centres undefined)
4.5 | 210 | 1030 | 12 | 13.8 |  | CC(C)C(NC(=O)OCc1cnccn1)C(=O)N[C@@H](Cc1ccccc1)[C@@H](O)C[C@H](Cc1ccccc1)NC(=O)OCc1cccnc1 (some centres undefined)
5.1 | 220 | 910 | 18 | 52.2 |  | CC(C)C(NC(=O)N(C)Cc1ccccn1)C(=O)N[C@@H](Cc1ccccc1)C[C@H](O)[C@H](Cc1ccccc1)NC(=O)OCc1cncnc1 (some centres undefined)
5.2 | 290 | 640 | 6 | 40.2 |  | CC(C)C(NC(=O)N(C)Cc1cscn1)C(=O)N[C@@H](Cc1ccccc1)C[C@H](O)[C@H](Cc1ccccc1)NC(=O)OCc1cccnc1 (some centres undefined)
5.3 | 230 | 380 | 19.8 | 17.4 |  | CC(C)C(NC(=O)N(C)Cc1csc(C(C)(C)C)n1)C(=O)N[C@@H](Cc1ccccc1)C[C@H](O)[C@H](Cc1ccccc1)NC(=O)OCc1cccnc1 (some centres undefined)
0.5 | 10 | 160 | 6 | 11.4 |  | CCc1ncc(COC(=O)NC(C(=O)N[C@@H](Cc2ccccc2)C[C@H](O)[C@H](Cc2ccccc2)NC(=O)OCc2cccnc2)C(C)C)s1 (some centres undefined)
0.6 | 20 | 120 | 6 | 16.2 |  | COCc1ncc(COC(=O)NC(C(=O)N[C@@H](Cc2ccccc2)C[C@H](O)[C@H](Cc2ccccc2)NC(=O)OCc2cccnc2)C(C)C)s1 (some centres undefined)
17 | 550 | 1520 | 9 | 18 |  | Cc1ncc(CN(C)C(=O)NC(C(=O)N[C@@H](Cc2ccccc2)[C@@H](O)C[C@H](Cc2ccccc2)NC(=O)OCc2cccnc2)C(C)C)nc1C (some centres undefined)
35 | 1660 | 3130 | 22.2 | 84 |  | CC(C)C(NC(=O)N(C)Cc1cscn1)C(=O)N[C@@H](Cc1ccccc1)[C@@H](O)C[C@H](Cc1ccccc1)NC(=O)OCc1cccnc1 (some centres undefined)
